Consider eight substances from patent US10787485B2, “Peptide for coating surfaces” (Universität Leipzig, priority 2015, dated 2020).

“Also recorded” adds a separate entry of the source.

The nature of data set [1]: Stability test by biotin ELISA of peptides immobilized on titanium, in SaOS-2 cell supernatant. Type of data set: in vitro ADME. As to conditions: titanium coated at 1 μM, 37° C. As for the experimental part: (§1) For that, titanium slices were etched in order to obtain a freshly oxidized surface. Subsequently, the titanium slices were incubated with various peptide concentrations. Following intensive washing steps titanium-bound peptide was identified with the well-described biotin-streptavidin interaction. […] Moreover, stability of the DOPA peptides was tested in cell supernatant to imitate in vitro conditions. For that, titanium slices were coated with the corresponding biotinylated peptides (concentration=1 μM). Following incubation in SaOS-2 cell supernatant at 37° C. remaining peptide was identified by means of the biotin ELISA. Within a period of 7 days constantly more than 50% of immobilized and biotinylated peptide were detected (FIG. 2C).
Titanium slices were etched as described and incubated overnight with 1 μM of peptide solutions in TBS buffer at RT. Subsequently, the coated slices were washed 5 times with TBS-T buffer and transferred to new reaction vessels. Thereafter, the titanium slices were incubated with cell supernatant (of SaOS-2 cells after 2 days of cell cultivation) at 37° C. for certain times. To detect […], biotinylated peptide on the surface the titanium slices were washed 4 times with TBS-T and once with TBS and the biotin ELISA was performed as described. Zero reading values were obtained by uncoated titanium slices and subtracted from the generated data. The obtained measuring values were normalized to the value measured at 0 min. Error bars are represented as standard error of the mean (SEM) from at least 2 independent experiments (double determination).
On the technique in general: An ELISA detects its analyte on a solid surface through an enzyme-linked reagent.

A short description of data set [2]: Biotin ELISA, binding of biotinylated peptides to etched titanium slices. The settings on record: for pEC50 binding affinity to titanium / EC50: biotinylated peptides, etched titanium slices, 2 hrs at RT in TBS; for EC50: read-out: EC50 binding affinity to titanium; for beginning of saturation phase of binding to titanium: concentration effect curve of the biotin ELISA. The protocol:
Following synthesis of the mussel peptide by solid phase peptide synthesis (Fmoc/tBu strategy) the binding affinity to titanium was studied.
as §1
Titanium foil (Sigma Aldrich, thickness: 0.127 mm) was cut to round pieces (area=0.43 cm^2) and etched in H2SO4 (30%)/H2O2 (1:1 v/v) for 7 min. Following washing steps with water and TBS buffer (50 mM tris(hydroxymethyl)-aminomethane (Tris), 150 mM NaCl, pH 7.6) the titanium slices were incubated with various concentrations of biotinylated peptides in TBS buffer dissolved for 2 hrs. at RT. Subsequently, the coated slices were washed 5 times with TBS-T buffer (50 mM Tris, 150 mM NaCl, 0.1% Tween 20, pH 7.6) and transferred to new reaction vessels. The following biotin ELISA was performed in accordance with Hassert et al.^3 Zero reading values were obtained with uncoated titanium slices and subtracted from the generated values (absorption per cm^2). The obtained data points were non-linearly fitted with GraphPad Prism 5 software (GraphPadInc.). Error bars are represented as standard error of the mean (SEM) from at least 2 independent experiments.

Data set [3] concerns SaOS-2 cells. The experiment in a line: Cell adhesion assay on peptide-coated titanium (fluorescence microscopy). The format is cell-based. As to conditions: 6 h adhesion, serum-free medium; for average cell plane (cell propagation, cell size) / cell morphology / actin cytoskeleton: 1 μM peptide coating; for cell number of adhered cells: normalized to uncoated Ti. The protocol: (§2) To determine the bioactivity of the ligated peptides and their controls cell adhesion studies have been performed. Osteoblast-like cells (SaOS-2) have been sown on etched peptide-coated titanium. All cellular experiments were performed in serum-free medium to prevent false results by adsorption of serum proteins. To study initial cell adhesion the cells were fixed and dyed after 6 h of cultivation to observe morphology and average cell plane and number by means of fluorescence microscopy. […] Indeed, an increase in cell size was observed, slightly higher than on uncoated titanium slices. […] Cells having a fibroblast-like morphology and distinct bundles of fibrils have been found on all RGD-containing peptide coatings. […] In addition to the average cell plane the cell number was determined by counting cells that adhered after 6 h. […] Moreover, a similar tendency as already in the cell plane experiment could be observed. […] It is known that RGD peptides mediate the formation of focal contacts that are decisive for the outer-inner communication between cell and ECM.^6 By immuno-labeling with an anti-vinculin antibody it is possible to visualize vinculin, a protein involved in building up focal adhesion.
Titanium foil was stamped and etched as already described. Following washing steps with water and PBS buffer (Dulbeccos phosphate) the titanium slices were sterilized with 70% ethanol/water (v/v) in an ultrasonic bath for 15 min. After having washed twice with PBS buffer the titanium slices were incubated overnight in a 48-well plate at RT with 300 μL of 1 μM of a peptide solution in PBS, PBS (negative control), and fibronectin in PBS (25 μg/mL, positive control).
Coated titanium slices (48-well plate) were washed twice with PBS. SaOS-2 cells were re-suspended in medium without FCS. Thereafter, the cells were sown on the coated titanium slices (50,000-90,000 cells per well, in this range we didn't find any influence on the cell plane for respective coating). Following adhesion for 6 hrs. the slices were washed with PBS and the cells were fixed with 4% paraformaldehyde in PBS for 30 min. Subsequently, the adhered cells were washed and permeabilized with 1% Triton X-100 in PBS for 1 min. Thereafter, the cells were dyed with phalloidin-tetramethylrhodamine isothiocyanate (phalloidin-TRITC) and HOECHST 33342 (both Sigma Aldrich). For fluorescence microscopy (Axio Observer microscope, Zeiss) the slices were attached to slides. For each slice (triplicate) 3 representative images at 20 fold and 10 fold magnification were made. Then, the average cell plane was determined by edging (Software Axio Vision 4.8, Zeiss) each single cell on one representative image (20 fold) each of each triplicate. The determined values were summarized from 3 independent experiments and represented as mean±SEM. To determine the cell number, three 10 fold magnified images were evaluated by means of ImageJ software and normalized to titanium=1, n≥3.

Data set [4] has as its system SaOS-2 cells. In words: Proliferation assay (BrdU) on coated titanium. Type of data set: cell-based. As to conditions: 24 h incorporation after 2 d of cell adhesion, normalized to uncoated titanium. As for the experimental part:
(§3) In addition to initial cell adhesion after 6 h cell viability and proliferation after 3 d was studied. Incorporation of the bromine-labeled thymidine analogue bromodeoxyuridine (BrdU) within 24 h, after 2 d of cell adhesion, was used to determine proliferation of cells on coated titanium. No significant changes could be found between the immobilized peptides and controls (FIG. 5C). However, a peptide coating is advantageous compared to untreated titanium. […] Cell viability was studied after 3 days of adhesion by reacting resazurin to resorufin by living cells. […] This fact emphasizes the cell repellent, but at the same time not toxic properties of the PEG. […] Thus, the advantageous approach to present both cell binding peptides in one molecule is confirmed.
Cells were sown onto coated and washed titanium slices in FCS-free medium in a 96-well plate. After one day the medium was replaced by FCS-containing medium. On day 2 bromodeoxyuridine (BrdU) was added to each well for labelling (colorimetric Cell Proliferation kit, Roche). After 24 hrs. of incorporation of the label the cells were washed and fixed. […] Binding of the antibody was detected with the addition of a 3,3′,5,5′-tetramethylbenzidine (TMB) solution and H2O2(Calbiochem). […] The measured values (mean±SEM) were evaluated from 4 independent experiments performed in triplicates and normalized to uncoated titanium.

The subject of data set [5] is SaOS-2 cells. The experiment in a line: Viability assay (resazurin) on coated titanium. Type of data set: cell-based. As to conditions: after 3 days of adhesion. The protocol: as §3
Cells were sown onto coated and washed titanium slices in FCS-free medium in a 96-well plate. After one day the medium was replaced by FCS-containing medium. On day 3 20 μL of CellTiderBlue® (Promega) were added to each well. After 2 hrs. of incubation the reaction of resazurin to resorufin was determined by means of fluorescence intensity measurement at 560Ex/590Em nm. The measured values (mean±SEM) were evaluated from 4 independent experiments performed in triplicate.
(In general: Resazurin is reduced to fluorescent resorufin, in cell work by metabolically active cells.)

Data set [6] concerns SaOS-2 cells. In words: Immunolabelling of focal contacts (vinculin) on peptide coatings. The settings on record: 24 hrs adhesion, anti-vinculin antibody. Type of data set: cell-based. The protocol:
as §2
Cells (40,000 per well) were sown onto coated and washed titanium slices as already described. After 1 d of cell adhesion the slices were washed twice with PBS. All of the following washing steps were performed with 0.05% (v/v) Tween-20 in PBS. Thereafter, the cells were fixed and permeabilized as already described. To block unspecific interactions the slices were incubated with 1% bovine serum albumin (BSA) in PBS for 40 min. Subsequently, the cells were incubated with a murine monoclonal antibody against vinculin (Millipore, staining kit, 1:200) for 1 hr. at RT. Thereafter, the cells were washed and labeled with phalloidin-TRITC and a fluoresceinisothiocyanate (FITC) conjugated goat anti-mouse antibody (Millipore, 1:100) in 1% (v/v) BSA in PBS for 2 hr. Following a further washing step the nucleus was dyed with 4′,6-diamidino-2-phenylindol (DAPI, Millipore) in PBS for 15 min. Before the slices were attached to slides they were washed three times for 10 min. each. Fluorescence microscopy was performed on an Axio Observer microscope and an ApoTome Imaging System (Zeiss).

What is called EC50 is the concentration at which the effect is half-maximal.

Turning to “Bio-X-X-A-K-P*-S-Y*-P*-P*-T-Y*-K-NH2 [mefp-1]”, in data set [1], the “stability on titanium, comparison of peptides” value (shortened to “stability on titanium”) is reported as “no significant differences”. For the same substance, in data set [2], the “pEC50 binding affinity to titanium” value was found to be 8.2±0.1, the EC50 was determined as 6.4 nM and the “beginning of saturation phase of binding to titanium” value was “sub-μM range”.

As for “Bio-X-X-C-Peg-Y*-K-Y*-Peg-G*-βA-NH2 [bio-MP]”, the “stability on titanium” value in data set [1] was “no significant differences”.

Consider “C-Peg-Y*-K(c[RGDfK])-Y*-Peg-G*(K(N3)-FHRRIKA-NH2)-βA-NH2 [MP-RGD-HBP]”, for which, in the data set on SaOS-2 cells [3], the “average cell plane (cell propagation, cell size)” value (shortened to “average cell plane”) is on record as “highest average cell plane” and the “cell morphology / actin cytoskeleton” value is given as “distinctive, parallel actin filaments have formed”. The “cell proliferation (BrdU incorporation)” value in the data set on SaOS-2 cells [4] is “slightly increased cell proliferation”. In addition, the “cell viability (resazurin to resorufin)” value in the data set on SaOS-2 cells [5] was “best result among all synthesized peptides”. For the same substance, in the data set with SaOS-2 cells [6], the “formation of focal adhesion contacts (vinculin)” value (“formation” for short) is reported as “line-like adhesion contacts (green) were formed; also recorded: slight increase in focal complexes”.

Consider “C-Peg-Y*-K(c[RGDfK])-Y*-Peg-G*-βA-NH2 [MP-RGD]”, for which the “average cell plane” value in the data set on SaOS-2 cells [3] is given as “average cell size comparable to the naturally occurring ECM protein fibronectin”. The “formation” value in the data set with SaOS-2 cells [6] was “line-like adhesion contacts (green) were formed”.

In the case of “C-Peg-Y*-K-Y*-Peg-G*(K(N3)-FHRRIKA-NH2)-βA-NH2 [MP-HBP]”, in the data set on SaOS-2 cells [3], the “average cell plane” value was “increase of cell propagation compared with MP and uncoated titanium”; the “cell morphology / actin cytoskeleton” value is “only formed a few actin filaments and adhered in irregular cell shapes”. Also, in the data set on SaOS-2 cells [6], the “formation” value was “a few or no focal adhesion contacts”.

With C-Peg-Y*-K-Y*-Peg-G*-βA-NH2 [MP], the “stability on titanium” value in data set [1] is “tendency to a higher stability”. Moreover, in data set [2], the “pEC50 binding affinity to titanium” value is on record as 7.6±0.1, the EC50 was determined as 23.6 nM and the “beginning of saturation phase of binding to titanium” value is recorded as “sub-μM range”. In the data set on SaOS-2 cells [3], the “average cell plane” value is given as “smallest cell propagation”; the “cell morphology / actin cytoskeleton” value was “rather round shape with slightly formed cytoskeleton”; the “cell number of adhered cells” value is on record as “smallest cell number”. Besides, the “cell viability (resazurin to resorufin)” value with SaOS-2 cells [5] was “more living cells could be analyzed on this coating than on titanium”. For the same substance, the “formation” value in the data set with SaOS-2 cells [6] is reported as “a few or no focal adhesion contacts”.

Consider P*-T-Y-K-NH2 [bio-(−) mefp-1], for which, in data set [2], the “pEC50 binding affinity to titanium” value is recorded as 4.6±0.1 and the EC50 was > 10000 nM.

As for c[RGDfK(dienophile)], the “cell number of adhered cells” value in the data set on SaOS-2 cells [3] is listed as “increased to a greater extent than on HBP”.
